Data from US20260166128A1, “HUMAN AMYLIN ANALOG, AND DERIVATIVE THEREOF AND USE THEREOF” (priority 2022, published 2026).
Numbered stars: 1 amine (or outer) side, 2 acyl side, 3 side chain; on linkers, the order of the positions; unused ones are H or OH. Bridge positions count the residues as written; N and C are the ends. Square brackets hold non-standard residues; d marks the D form. Peptide text beside a SMILES is read from it. * marks the point of attachment. C20 diacid = O=C(O)CCCCCCCCCCCCCCCCCCC(=O)*; γGlu = O=C(O)[C@H](CCC(=O)[*:2])N[*:1]; βAsp = O=C(O)[C@H](CC(=O)[*:2])N[*:1]; Hyp = O=C(O)[C@@H]1C[C@@H](O)CN1; AEEA = NCCOCCOCC(=O)O; Aoc = NCCCCCCCC(=O)O; Inp = O=C(O)C1CCNCC1

Biological target: T1, human amylin receptor (Homo sapiens, UniProt O60896+P30988)
T1 construct: host or cells: CHO-K1/Ga15/AMY3 cells, further stably transfected with a CRE-luciferase plasmid
T1 sequence (P30988 25-474): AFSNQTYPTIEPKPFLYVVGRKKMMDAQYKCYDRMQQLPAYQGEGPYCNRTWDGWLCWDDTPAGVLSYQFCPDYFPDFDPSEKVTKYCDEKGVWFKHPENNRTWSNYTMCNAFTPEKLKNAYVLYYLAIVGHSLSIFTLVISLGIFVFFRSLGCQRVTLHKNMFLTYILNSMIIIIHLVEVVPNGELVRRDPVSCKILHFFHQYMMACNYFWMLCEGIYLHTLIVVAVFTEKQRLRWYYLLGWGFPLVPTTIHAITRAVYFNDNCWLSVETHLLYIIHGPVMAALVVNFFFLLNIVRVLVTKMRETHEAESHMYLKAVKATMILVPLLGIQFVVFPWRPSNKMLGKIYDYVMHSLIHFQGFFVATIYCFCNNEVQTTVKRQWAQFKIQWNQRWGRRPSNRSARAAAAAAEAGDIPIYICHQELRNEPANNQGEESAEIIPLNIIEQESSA
T1 sequence (O60896 24-148 partner): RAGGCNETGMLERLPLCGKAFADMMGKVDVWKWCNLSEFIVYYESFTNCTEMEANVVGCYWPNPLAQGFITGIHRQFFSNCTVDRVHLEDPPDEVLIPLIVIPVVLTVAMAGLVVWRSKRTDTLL
Test: Luciferase assay of amylin derivatives in amylin receptor/CRE-luc CHO cell line
Format: cell-based
Conditions: CHO-K1/Ga15/AMY3 CRE-luc cells, 24 hours incubation, F12 medium containing 10% FBS; read-out: EC50
Method: The experiment was intended to detect the activity or efficacy of the amylin derivatives on a human amylin receptor in vitro by luciferase assay.
50 μL of growth medium (F12 medium containing 10% FBS) was added into each well of a white 96-well plate, and the stably transfected amylin/CRE-lue CHO cells were inoculated into the white 96-well plate at a density of about 20,000 cells/well for activity determination.

Row | Structure (SMILES) | EC50 [nM]
1 | CC[C@H](C)[C@H](NC(=O)[C@@H]1CCCN1C(=O)CCCCCCCNC(=O)[C@H](CC(C)C)NC(=O)[C@H](CC(N)=O)NC(=O)[C@H](CC(N)=O)NC(=O)[C@H](CO)NC(=O)[C@H](CO)NC(=O)[C@H](Cc1c[nH]cn1)NC(=O)[C@H](CCCNC(=N)N)NC(=O)[C@H](CC(C)C)NC(=O)[C@H](Cc1ccccc1)NC(=O)[C@H](CC(=O)O)NC(=O)[C@H](C)NC(=O)[C@H](CC(C)C)NC(=O)[C@H](CCCNC(=N)N)NC(=O)[C@H](CCC(N)=O)NC(=O)[C@@H](NC(=O)[C@H](C)NC(=O)[C@@H]1CSSC[C@H](NC(=O)[C@H](CCCCN)NC(=O)CC[C@H](NC(=O)CCCCCCCCCCCCCCCCCCC(=O)O)C(=O)O)C(=O)N[C@@H](CC(N)=O)C(=O)N[C@@H]([C@@H](C)O)C(=O)N[C@@H](C)C(=O)N[C@@H]([C@@H](C)O)C(=O)N1)[C@@H](C)O)C(=O)N[C@@H](CC(C)C)C(=O)N1CCC[C@H]1C(=O)N1CCC[C@H]1C(=O)N[C@H](C(=O)N[C@@H](CC(N)=O)C(=O)N[C@H](C(=O)NCC(=O)N[C@@H](CO)C(=O)N[C@@H](CC(N)=O)C(=O)N[C@H](C(=O)N1CCC[C@H]1C(N)=O)[C@@H](C)O)C(C)C)[C@@H](C)O [PD174] ({C20 diacid-γGlu}-KCNTATCATQRLADFLRHSSNNL[Aoc]PILPPTNVGSNTP-NH2; disulfide 2-7) | 0.046
2 | CC[C@H](C)[C@H](NC(=O)[C@@H]1CCCN1C(=O)[C@H](CCCCN)NC(=O)[C@H](CC(C)C)NC(=O)[C@H](CC(N)=O)NC(=O)[C@H](CC(N)=O)NC(=O)[C@H](CO)NC(=O)[C@H](CO)NC(=O)[C@H](Cc1c[nH]cn1)NC(=O)[C@H](CCCNC(=N)N)NC(=O)[C@H](CC(C)C)NC(=O)[C@H](Cc1ccccc1)NC(=O)[C@H](CC(=O)O)NC(=O)[C@H](C)NC(=O)[C@H](CC(C)C)NC(=O)[C@H](CCCNC(=N)N)NC(=O)[C@H](CCC(N)=O)NC(=O)[C@@H](NC(=O)[C@H](C)NC(=O)[C@@H]1CSSC[C@H](NC(=O)[C@H](CCCCN)NC(=O)CC[C@H](NC(=O)COCCOCCNC(=O)COCCOCCNC(=O)CCCCCCCCCCCCCCCCCCC(=O)O)C(=O)O)C(=O)N[C@@H](CC(N)=O)C(=O)N[C@@H]([C@@H](C)O)C(=O)N[C@@H](C)C(=O)N[C@@H]([C@@H](C)O)C(=O)N1)[C@@H](C)O)C(=O)N[C@@H](CC(C)C)C(=O)N1CCC[C@H]1C(=O)N1CCC[C@H]1C(=O)N[C@H](C(=O)N[C@@H](CC(N)=O)C(=O)N[C@H](C(=O)NCC(=O)N[C@@H](CO)C(=O)N[C@@H](CC(N)=O)C(=O)N[C@H](C(=O)N1C[C@H](O)C[C@H]1C(N)=O)[C@@H](C)O)C(C)C)[C@@H](C)O [PD176] ({C20 diacid-AEEA-AEEA-γGlu}-KCNTATCATQRLADFLRHSSNNLKPILPPTNVGSNT[Hyp]-NH2; disulfide 2-7) | 0.029
3 | CC[C@H](C)[C@H](NC(=O)[C@@H]1CCCN1C(=O)[C@H](CCCCN)NC(=O)[C@H](CC(C)C)NC(=O)[C@H](CC(N)=O)NC(=O)[C@H](CC(N)=O)NC(=O)[C@H](CO)NC(=O)[C@H](CO)NC(=O)[C@H](Cc1c[nH]cn1)NC(=O)[C@H](CCCNC(=N)N)NC(=O)[C@H](CC(C)C)NC(=O)[C@H](Cc1ccccc1)NC(=O)[C@H](CC(=O)O)NC(=O)[C@H](C)NC(=O)[C@H](CC(C)C)NC(=O)[C@H](CCCNC(=N)N)NC(=O)[C@H](CCC(N)=O)NC(=O)[C@@H](NC(=O)[C@H](C)NC(=O)[C@@H]1CSSC[C@H](NC(=O)[C@H](CCCCN)NC(=O)COCCOCCNC(=O)COCCOCCNC(=O)C2CCN(C(=O)CCCCCCCCCCCCCCCCCCC(=O)O)CC2)C(=O)N[C@@H](CC(N)=O)C(=O)N[C@@H]([C@@H](C)O)C(=O)N[C@@H](C)C(=O)N[C@@H]([C@@H](C)O)C(=O)N1)[C@@H](C)O)C(=O)N[C@@H](CC(C)C)C(=O)N1CCC[C@H]1C(=O)N1CCC[C@H]1C(=O)N[C@H](C(=O)N[C@@H](CC(N)=O)C(=O)N[C@H](C(=O)NCC(=O)N[C@@H](CO)C(=O)N[C@@H](CC(N)=O)C(=O)N[C@H](C(=O)N1C[C@H](O)C[C@H]1C(N)=O)[C@@H](C)O)C(C)C)[C@@H](C)O [PD179] ({C20 diacid-Inp-AEEA-AEEA}-KCNTATCATQRLADFLRHSSNNLKPILPPTNVGSNT[Hyp]-NH2; disulfide 2-7) | 0.017
4 | CC[C@H](C)[C@H](NC(=O)[C@@H]1CCCN1C(=O)[C@H](CCCCN)NC(=O)[C@H](CC(C)C)NC(=O)[C@H](CC(N)=O)NC(=O)[C@H](CC(N)=O)NC(=O)[C@H](CO)NC(=O)[C@H](CO)NC(=O)[C@H](Cc1c[nH]cn1)NC(=O)[C@H](CCCNC(=N)N)NC(=O)[C@H](CC(C)C)NC(=O)[C@H](Cc1ccccc1)NC(=O)[C@H](CC(=O)O)NC(=O)[C@H](C)NC(=O)[C@H](CC(C)C)NC(=O)[C@H](CCCNC(=N)N)NC(=O)[C@H](CCC(N)=O)NC(=O)[C@@H](NC(=O)[C@H](C)NC(=O)[C@@H]1CSSC[C@H](NC(=O)[C@H](CCCCN)NC(=O)C2CCN(C(=O)COCCOCCNC(=O)COCCOCCNC(=O)CCCCCCCCCCCCCCCCCCC(=O)O)CC2)C(=O)N[C@@H](CC(N)=O)C(=O)N[C@@H]([C@@H](C)O)C(=O)N[C@@H](C)C(=O)N[C@@H]([C@@H](C)O)C(=O)N1)[C@@H](C)O)C(=O)N[C@@H](CC(C)C)C(=O)N1CCC[C@H]1C(=O)N1CCC[C@H]1C(=O)N[C@H](C(=O)N[C@@H](CC(N)=O)C(=O)N[C@H](C(=O)NCC(=O)N[C@@H](CO)C(=O)N[C@@H](CC(N)=O)C(=O)N[C@H](C(=O)N1C[C@H](O)C[C@H]1C(N)=O)[C@@H](C)O)C(C)C)[C@@H](C)O [PD180] ({C20 diacid-AEEA-AEEA-Inp}-KCNTATCATQRLADFLRHSSNNLKPILPPTNVGSNT[Hyp]-NH2; disulfide 2-7) | 0.016
5 | CC[C@H](C)[C@H](NC(=O)[C@@H]1CCCN1C(=O)[C@H](CCCCN)NC(=O)[C@H](CC(C)C)NC(=O)[C@H](CC(N)=O)NC(=O)[C@H](CC(N)=O)NC(=O)[C@H](CO)NC(=O)[C@H](CO)NC(=O)[C@H](Cc1c[nH]cn1)NC(=O)[C@H](CCCNC(=N)N)NC(=O)[C@H](CC(C)C)NC(=O)[C@H](Cc1ccccc1)NC(=O)[C@H](CC(=O)O)NC(=O)[C@H](C)NC(=O)[C@H](CC(C)C)NC(=O)[C@H](CCCNC(=N)N)NC(=O)[C@H](CCC(N)=O)NC(=O)[C@@H](NC(=O)[C@H](C)NC(=O)[C@@H]1CSSC[C@H](NC(=O)[C@H](CCCCN)NC(=O)[C@H](CC(=O)O)NC(=O)COCCOCCNC(=O)COCCOCCNC(=O)CCCCCCCCCCCCCCCCCCC(=O)O)C(=O)N[C@@H](CC(N)=O)C(=O)N[C@@H]([C@@H](C)O)C(=O)N[C@@H](C)C(=O)N[C@@H]([C@@H](C)O)C(=O)N1)[C@@H](C)O)C(=O)N[C@@H](CC(C)C)C(=O)N1CCC[C@H]1C(=O)N1CCC[C@H]1C(=O)N[C@H](C(=O)N[C@@H](CC(N)=O)C(=O)N[C@H](C(=O)NCC(=O)N[C@@H](CO)C(=O)N[C@@H](CC(N)=O)C(=O)N[C@H](C(=O)N1C[C@H](O)C[C@H]1C(N)=O)[C@@H](C)O)C(C)C)[C@@H](C)O [PD182] ({C20 diacid-AEEA-AEEA}-DKCNTATCATQRLADFLRHSSNNLKPILPPTNVGSNT[Hyp]-NH2; disulfide 3-8) | 0.034
6 | CC[C@H](C)[C@H](NC(=O)[C@@H]1CCCN1C(=O)[C@H](CCCCN)NC(=O)[C@H](CC(C)C)NC(=O)[C@H](CC(N)=O)NC(=O)[C@H](CC(N)=O)NC(=O)[C@H](CO)NC(=O)[C@H](CO)NC(=O)[C@H](Cc1c[nH]cn1)NC(=O)[C@H](CCCNC(=N)N)NC(=O)[C@H](CC(C)C)NC(=O)[C@H](Cc1ccccc1)NC(=O)[C@H](CC(=O)O)NC(=O)[C@H](C)NC(=O)[C@H](CC(C)C)NC(=O)[C@H](CCCNC(=N)N)NC(=O)[C@H](CCC(N)=O)NC(=O)[C@@H](NC(=O)[C@H](C)NC(=O)[C@@H]1CSSC[C@H](NC(=O)[C@H](CCCCN)NC(=O)COCCOCCNC(=O)COCCOCCNC(=O)C[C@H](NC(=O)CCCCCCCCCCCCCCCCCCC(=O)O)C(=O)O)C(=O)N[C@@H](CC(N)=O)C(=O)N[C@@H]([C@@H](C)O)C(=O)N[C@@H](C)C(=O)N[C@@H]([C@@H](C)O)C(=O)N1)[C@@H](C)O)C(=O)N[C@@H](CC(C)C)C(=O)N1CCC[C@H]1C(=O)N1CCC[C@H]1C(=O)N[C@H](C(=O)N[C@@H](CC(N)=O)C(=O)N[C@H](C(=O)NCC(=O)N[C@@H](CO)C(=O)N[C@@H](CC(N)=O)C(=O)N[C@H](C(=O)N1C[C@H](O)C[C@H]1C(N)=O)[C@@H](C)O)C(C)C)[C@@H](C)O [PD183] ({C20 diacid-βAsp-AEEA-AEEA}-KCNTATCATQRLADFLRHSSNNLKPILPPTNVGSNT[Hyp]-NH2; disulfide 2-7) | 0.04
